Tested on: enzymes in the soil
Experiment: Ammonia volatilization test (fertilizer applied to the surface of moist soil, ammonia captured in sulfuric acid and titrated)
Details: cumulative, percent of total starting nitrogen
Text: Nitrogen lost, as ammonia, after soil application occurs over a long time period. The present volatilization test was designed to simulate and quantify processes in the soil. The volatilization test apparatus and procedure utilized to evaluate the test product samples described in above Table 1 is summarized as follows.
Procedure for Measurement of Ammonia
The test was designed to determine the volatility of a fertilizer product when applied to the surface of the soil. The baseline, standard that used was one gram of urea. Each sample was placed in a sample flask which contained a pre-weighed amount of soil and water. The same source of soil was used in all testing. Humidified air was then passed over the sample to carry any ammonia which had volatilized by the enzymes in the soil, to a receiving flask. The receiving flask contained sulfuric acid which captured the ammonia. The receiving flask was then titrated to determine the amount of ammonia volatilized from each sample.
Mixed Methyl Red—Methylene Blue Indicator (150 mL): • Dissolve 0.2 g of methyl red in 100 mL of ethyl alcohol (70-95%). Dissolve 0.1 g methylene blue in 50 mL of ethyl alcohol (70-95%). Mix together. • Indicator was good for 30 days. Testing Apparatus: Manifold: • a. A manifold was constructed of ½ inch cpvc (chlorinated polyvinyl chloride). • b. The manifold has 22 ports with a needle valve for air flow adjustment. • c. The tubing from the manifold to the sample flask was connected to a 1/16 inch hose barb on the needle valve.
2. Air Supply: • a. The air was supplied by an air compressor with a regulator to control the pressure to the manifold. • b. The air goes through a rotameter with a control knob to adjust the flow to the manifold (A minimum of 70 volumes of the head space is in each sample flask during each sampling interval, often much higher. Head space refers to the air volume above the soil.). • c. The air from the rotameter goes through a bubbler containing 25% sulfuric acid solution. After the sulfuric acid bubbler is a knock out chamber to prevent any sulfuric acid mist from going further. • d. The air then goes to a water bubbler to hydrate the air before going through another knock out chamber before entering the manifold.
3. Sample Flask • a. The sample flask is a 250 mL Erlenmeyer flask. The tubing from the manifold is connected to the flask by a barb fitting in a rubber stopper. • b. Each sample flask contained 48 grams of soil (dried and sieved through a 12 mesh screen), 12 grams of water, and the equivalent of one gram of urea. The materials were added to the flasks in the order list to ensure that the sample was added to moist soil (20-25%).
4. Receiving Flask • a. The receiving flask is a 125 mL Erlenmeyer flask. Tubing from the stopper on the sample flask is connected to a glass sparger passing through a stopper to the receiving flask. • b. Each receiving flask contains 50 mL of 0.5N Sulfuric Acid. • c. The tip of the glass sparger is below the level of the acid to allow the air to bubble through the acid and capture any ammonia present. • d. The receiving flask is removed and replaced with flask containing fresh solution at the intervals of 3, 7 and 10 days.
5. Measurement of Ammonia • a. The contents of each receiving flask removed at the intervals of 3, 7 and 10 days were tested for ammonia according to the above described Procedure for Measurement of Ammonia. The first ten days are most critical and are sufficient to determine reliable comparative results. • b. […] Ammonia Volatilization Test Results for Products in Table 2

Compound	% Ammonia Released (Table 4 series, Day 0) [%]	% Ammonia Released (Table 4 series, Day 3) [%]	% Ammonia Released (Table 4 series, Day 7) [%]	% Ammonia Released (Table 4 series, Day 10) [%]	% Ammonia Released (Table 2 series, Day 0) [%]	% Ammonia Released (Table 2 series, Day 3) [%]	% Ammonia Released (Table 2 series, Day 7) [%]	% Ammonia Released (Table 2 series, Day 10) [%]	% Ammonia Released (Table 3 series, Day 0) [%]	% Ammonia Released (Table 3 series, Day 3) [%]	% Ammonia Released (Table 3 series, Day 7) [%]	% Ammonia Released (Table 3 series, Day 10) [%]	% Ammonia Released (Table 5 series, Day 0) [%]	% Ammonia Released (Table 5 series, Day 3) [%]	% Ammonia Released (Table 5 series, Day 7) [%]	% Ammonia Released (Table 5 series, Day 10) [%]
N.O=P(O)(O)O [MAP, monoammonium phosphate]	0	0.74	1.61	2.09												
NC(N)=O [Urea]	0	27.41	88.77	90.81	0	0.23	72.29	82.37	0	1.09	38.83	81.33	0	0.05	40.35	65.11

From patent US8758474B2, “Urea fertilizer containing central volatilization inhibitor particles to reduce release of ammonia and processes for making same” (NFT Industries, LLC, priority 2010, dated 2014)
